Test results taken from patent US20240398738A1, “MANIPULATION OF THE RETINOIC ACID SIGNALING PATHWAY” (THE REGENTS OF THE UNIVERSITY OF CALIFORNIA, priority 2017, published 2024).
“Also recorded” adds a separate entry of the source.

How the values were obtained:
[1] = tested on: RGCs in WT retina; assay: YO-PRO-1 loading assay (dye permeability of RGCs) in WT retina after intravitreal injection; format: in vivo, mouse
Experimental: (§1) Intravitreal Injections. Before injection, mice were anesthetized with isoflurane (2%) and their pupils were dilated with tropicamide (1%) and phenylephrine (2.5%). Proparacaine (0.5%) was used as a topical analgesic. Genteal was applied under a glass coverslip to keep the cornea lubricated. An incision was made through the sclera below the ora serrata with a 30G needle and ˜1 μl of solution was injected into the vitreous with a blunt-ended 33G Hamilton syringe. After injection, the antibiotic tobramycin (0.3%) was applied to the eye. Final drug concentrations after intravitreal injection were: all-trans retinoic acid (ATRA, 100 nM), liarozole (100 μM), diethylaminobenzaldehyde (DEAB, 20 μM), citral (50 μM), BMS-493 (500 nM), and retinaldehyde (1 μM). The above values correspond to the final concentration in the eye after injecting 1 μl of drug accounting for a 5-fold dilution. An injection of PBS including 1% DMSO was used as vehicle control.
(§2) Yo-PRO-1 Loading Assay. After dissection, retinas were cut into thirds and mounted on a windowed nitrocellulose filter paper. Retinas were treated with 200 nM Yo-PRO-1 (Life Technologies) in oxygenated ACSF for 15 minutes, followed by treatment and then treated with nuclear ID (Enzo Life Sciences) at a 1:500 dilution for 3 minutes. ACSF was perfused continuously at 3 ml/min for a period of 5 minutes to wash away excess dye. In experiments employing TNP-ATP (200 μm), the retinas was pretreated with the compound for ten minutes before beginning YO-PRO-1 treatment.
(§3) Image analysis. All image analysis was performed using ImageJ or Fiji software (55,56). Yo-PRO-1 loading assay, ROIs were manually selected using the nuclear-ID channel based upon morphological characteristics. This was performed after computationally flattening the retina by performing a maximum Z projection onto a single plane. Following this, a background subtraction was performed with a rolling radius of 50 pixels. Cells identified as vascular endothelial cells or pericytes were not included in the analysis. This was confirmed using transillumination. A threshold for YO-PRO-1 loading was established by measuring the level of autofluorescence of untreated retinas in each channel and finding a baseline value with +2SD being the threshold for a YO-PRO-1 positive cell. Nuclear-ID was used to count the total number of cells within a field of view. The percentage of cells above the threshold was then calculated for comparison. For analysis of RARE double reporter virus assay, ROIs were manually selected on the RFP channel first and then superimposed to the GFP channel. Single cell values for both RFP and GFP were filtered by using a RFP minimum threshold established in naive unlabeled retinas.
(§4) Injections. Intravitreal injections: Adult mice and rats were intravitreally injected with drugs or viruses. Before injection, animals were anesthetized with isoflurane (2%) and their pupils were dilated with tropicamide (1%) and phenylephrine (2.5%). Proparacaine (0.5%) was used as a topical analgesic. Genteal was applied under a glass coverslip to keep the cornea lubricated. An incision was made through the sclera below the ora serrata with a 30G needle. Solutions were injected into the vitreous with a blunt-ended 33G Hamilton syringe. After injection, the antibiotic tobramycin (0.3%) was applied to the eye. Final drug concentrations (after 5-fold dilution in the vitreous) were: 100 nM all-trans retinoic acid (ATRA), 100 μM liarozole (24), 20 μM diethylaminobenzaldehyde (DEAB) (28,93), 50 μM citral, 500 nM BMS 493 (85), 1 μM retinaldehyde, and vehicle comprising of 1× phosphate buffered saline (PBS) containing 1% dimethyl sulfoxide (DMSO). Intravitreal injections were performed using AAV2 serotype only. WT and rd1 mice were injected with the RAR-reporter virus or the RARDN virus, at age 1-1.5 month-old. WT and s334ter rats were injected with the RAR-reporter virus at age 3-4 month-old. Final volume of injections was 1-1.5 μL for mice and 5 μL for rats. […]

[2] = tested on: RAR; assay: RAR dual fluorescent reporter (RARE-SV40-GFP / CMV-RFP) in HEK293 cells; format: cell-based, human
[3] = tested on: RGCs in WT retina; assay: MEA recording of photoswitch (QAQ, BENAQ) photosensitization in WT retina; format: in vivo, mouse; details: WT retina, 3-7 days after intravitreal injection
Experimental: as §1
Multi Electrode Array Recordings. For extracellular recordings, a flat-mounted retina was placed ganglion cell layer down onto a 60-electrode Multi-Electrode Array (MEA 1060-2-BC, Multi-Channel Systems). After mounting the retina, photoswitches were applied for 30 min, followed by a 15 min wash. BENAQ was applied at a concentration of 100 μM and QAQ at 300 μM. A solution containing a mixture of neurotransmitter receptor blockers isolated RGCs from synaptic inputs: (in μM) 10 AP4, 40 DNQX, 30 AP5, 10 SR-95531, 50 TPMPA, 10 strychnine, and 50 tubocurarine. Extracellular spikes were high-pass filtered at 200 Hz and digitized at 20 kHz and were counted when exceeding 4 SD from the mean background voltage signal. Typically, each electrode recorded spikes from one to three individual RGCs. Principal component analysis of the spike waveforms was used for sorting spikes generated by individual cells (Offline Sorter, Plexon). Stimulation light was generated from a mercury arc lamp. Unfiltered broad spectrum light was used for BENAQ-treated retinas. Narrow band optical filters (Chroma) were used to deliver alternating intervals of 380 nm and 500 nm for stimulation of QAQ-treated as described previously (5,12). The Photoswitch Index (5) (PI) was established for individual retinas in light/darkness for treatment with BENAQ or in 380 nm/500 nm light for treatment with QAQ (11,12).
Injections. Intravitreal injections: Adult mice and rats were intravitreally injected with drugs or viruses. Before injection, animals were anesthetized with isoflurane (2%) and their pupils were dilated with tropicamide (1%) and phenylephrine (2.5%). Proparacaine (0.5%) was used as a topical analgesic. Genteal was applied under a glass coverslip to keep the cornea lubricated. An incision was made through the sclera below the ora serrata with a 30G needle. Solutions were injected into the vitreous with a blunt-ended 33G Hamilton syringe. After injection, the antibiotic tobramycin (0.3%) was applied to the eye. Final drug concentrations (after 5-fold dilution in the vitreous) were: 100 nM all-trans retinoic acid (ATRA), 100 μM liarozole (24), 20 μM diethylaminobenzaldehyde (DEAB) (28,93), 50 μM citral, 500 nM BMS 493 (85), 1 μM retinaldehyde, and vehicle comprising of 1× phosphate buffered saline (PBS) containing 1% dimethyl sulfoxide (DMSO). Intravitreal injections were performed using AAV2 serotype only. WT and rd1 mice were injected with the RAR-reporter virus or the RARDN virus, at age 1-1.5 month-old. WT and s334ter rats were injected with the RAR-reporter virus at age 3-4 month-old. Final volume of injections was 1-1.5 μL for mice and 5 μL for rats.
Multi Electrode Array Recordings. Flat-mounted retina was placed ganglion cell layer down onto a 60-electrode Multi-Electrode Array (MEA 1060-2-BC, Multi-Channel Systems). After mounting the retina was left to dark adapt for 20 minutes under constant perfusion with oxygenated saline at 34° C. 300 μM QAQ at was applied for 30 min, followed by a 5 min wash. […]

[4] = tested on: RGCs in rd1 retina; assay: YO-PRO-1 loading assay (dye permeability of RGCs) in rd1 retina after intravitreal injection; format: in vivo, mouse
Experimental: as §1, §2, §3, §4

CC1=C(/C=C/C(C)=C/C=C/C(C)=C/C(=O)O)C(C)(C)CCC1 [ATRA, all-trans retinoic acid]
increase of YO-PRO-1 labeling ([1]; WT mice, 3-7 days after intravitreal injection, versus vehicle): 2 fold | percentage of YO-PRO-1 positive cells ([1]; WT mice, intravitreal injection 3-7 days before, ATRA 100 nM, liarozole 100 μM, retinaldehyde 1 μM, DEAB 20 μM, mean±SEM): 15.80±3.10% | reversibility of ATRA-induced YO-PRO-1 loading ([1]; WT retina, intravitreal ATRA 100 nM): reversible; also recorded: disappeared 6 weeks after injection | Yo-Pro-1 labeling of WT-RGCs, result in words ([1]; WT retina, substance injected intravitreally alone): significantly increased the fraction of cells incorporating Yo-Pro-1 | GFP expression of the RAR reporter ([2]; HEK293, ATRA 1 μM, 48 hrs): significant increase in GFP expression only following ATRA treatment; also recorded: induced GFP expression | increase in GFP to RFP ratio ([2]; HEK293, different doses and times of ATRA, with 100 μM liarozole): dose- and time-dependent | QAQ photosensitization of WT retina, in words [3]: Neither ATRA nor liarozole alone enabled significant QAQ photosensitization | Photoswitch Index (PI) with QAQ ([3]; QAQ 300 μM, mean±SEM): 0.1±0.05

CC1(C)CC=C(C#Cc2ccccc2)c2cc(/C=C/c3ccc(C(=O)O)cc3)ccc21 [BMS-493]
percentage of YO-PRO-1 positive cells, ATRA-induced labeling with blocker ([1]; WT mice injected with ATRA, TNP-ATP bath-applied ex vivo or BMS-493 co-injected, mean±SEM): 5.74±1.54% | Yo-Pro-1 labeling of rd1-RGCs, result in words ([4]; rd1, intravitreal injection, compared to vehicle-injected): reduced Yo-Pro-1 labeling in rd1 to WT levels | percentage of YO-PRO-1 positive cells (fraction of RGC nuclei labeled) ([4]; rd1 mice, intravitreal injection, measured 3-7 days after, BMS-493 500 nM, DEAB 20 uM, citral 50 uM, mean±SEM): 6.13±1.43%
